# Test results published in US7897781B2, “Cold menthol receptor-1 antagonists” (Janssen Pharmaceutica NV, priority 2006, dated 2011).
# Values joined by “and” are separate entries in the source; they are usually repeats but may differ in a detail not shown here. Identical values can stand only once.
# Target: T1, canine TRPM8 (Canis lupus familiaris, UniProt Q1A7N1)
# T1 construct: expressed in transfected cells
# Assay: In vitro canine TRPM8 functional assay (Ca2+-sensitive dye, icilin activation; Table 4 TRPM8 Screening)
# Assay type: cell-based
# Conditions: compound at 0.5 μM; HEK293 cells expressing canine TRPM8, icilin activation
# Protocol: The functional activity of compounds of Formula (I) was determined by measuring changes in intracellular calcium concentration using a Ca^2+-sensitive fluorescent dye. The changes in fluorescent signal were monitored by a fluorescence plate reader, either a FLIPR™ (Molecular Devices) or FDSS (Hamamatsu).
# HEK293 cells stably expressing canine TRPM8 were routinely grown as monolayers in Dulbecco's minimum essential medium supplemented with 10% FBS, 1 mM L-glutamine, 100 units/mL penicillin, 100 ug/mL streptomycin and 400 μg/mL G418. Cells were maintained in 5% CO2 at 37° C. At 24 hrs prior to assay, cells were seeded in clear-base poly-D-lysine coated 384-well plates (BD Biosciences, NJ, USA) at a density of 5,000 cells per well in culture medium and grown overnight in 5% CO2 at 37° C. On assay day, growth media was removed and cells were loaded with Calcium 3 Dye (Molecular Devices) for 35 min at 37° C., under 5% CO2 and then for 25 min at room temperature and atmosphere. Subsequently, cells were tested for agonist-induced increases in intracellular Ca^2+ levels using FLIPR™ or FDSS. Cells were challenged with a compound of Formula (I) (at varying concentrations) and intracellular Ca^2+ was measured for 5 min prior to the addition of icilin to all wells to achieve a final concentration which produces approximately an 80% maximal response.
# Basal FI was subtracted prior to normalizing data to percent of maximal response. Curves were generated using the average of quadruplicate wells for each data point, were analyzed using nonlinear regression of either sigmoidal dose response or sigmoidal dose response (variable slope). Finally, the EC50 and IC50 values were calculated with the best-fit dose curve determined by GraphPad Prism.
# T1 sequence (Q1A7N1 1-1104): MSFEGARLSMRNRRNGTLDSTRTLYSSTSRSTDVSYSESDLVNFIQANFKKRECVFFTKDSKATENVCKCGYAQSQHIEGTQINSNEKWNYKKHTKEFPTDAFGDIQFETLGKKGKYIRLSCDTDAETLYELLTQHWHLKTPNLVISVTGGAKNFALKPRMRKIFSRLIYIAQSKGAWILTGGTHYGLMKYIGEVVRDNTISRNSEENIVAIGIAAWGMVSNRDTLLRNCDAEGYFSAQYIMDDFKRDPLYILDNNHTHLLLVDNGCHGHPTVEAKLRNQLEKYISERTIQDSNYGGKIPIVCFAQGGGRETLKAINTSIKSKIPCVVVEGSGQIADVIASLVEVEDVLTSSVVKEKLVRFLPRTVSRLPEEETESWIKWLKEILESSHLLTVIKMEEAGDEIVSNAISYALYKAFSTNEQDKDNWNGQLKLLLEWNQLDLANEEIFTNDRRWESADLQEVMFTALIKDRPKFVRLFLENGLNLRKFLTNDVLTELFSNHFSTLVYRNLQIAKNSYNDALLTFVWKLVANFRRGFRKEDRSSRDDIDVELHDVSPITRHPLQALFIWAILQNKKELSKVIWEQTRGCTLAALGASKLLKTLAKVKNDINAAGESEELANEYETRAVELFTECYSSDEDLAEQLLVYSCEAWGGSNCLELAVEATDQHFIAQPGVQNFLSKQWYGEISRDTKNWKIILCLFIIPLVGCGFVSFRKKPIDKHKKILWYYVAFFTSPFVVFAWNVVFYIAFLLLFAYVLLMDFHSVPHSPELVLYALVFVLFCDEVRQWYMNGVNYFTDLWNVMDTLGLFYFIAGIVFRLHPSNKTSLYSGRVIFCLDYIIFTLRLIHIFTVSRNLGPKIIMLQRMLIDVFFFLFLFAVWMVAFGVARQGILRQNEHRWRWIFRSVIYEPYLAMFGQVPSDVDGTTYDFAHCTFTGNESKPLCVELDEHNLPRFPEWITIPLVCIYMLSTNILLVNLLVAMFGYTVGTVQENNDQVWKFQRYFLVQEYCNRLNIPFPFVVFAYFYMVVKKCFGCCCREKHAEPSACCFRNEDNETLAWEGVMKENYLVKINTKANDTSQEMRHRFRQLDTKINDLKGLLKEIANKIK
row,Compound,% I (0.5 μM)
1,CCOP(=O)(OCC)C(Cc1cc(O)cc(O)c1)c1sc2ccccc2c1Br (stereo not drawn) [Cpd 322],45%
2,CCOP(=O)(OCC)C(Cc1cc(OC)c(Cl)cc1F)c1sc2ccccc2c1Br (racemic) [Cpd 164],94%
3,CC(C)OP(=O)(OC(C)C)C(Cc1cc(C(F)(F)F)ccc1Cl)c1sc2ccccc2c1Cl (stereo not drawn) [Cpd 178],79%
4,CCOP(=O)(OCC)C(Cc1cc(O)c(Cl)cc1F)c1sc2ccccc2c1Br (racemic) [Cpd 231],98%
5,CC(C)OP(=O)(OC(C)C)C(Cc1cccc(O)c1F)c1sc2ccccc2c1Br (racemic) [Cpd 230],97%
6,CCOP(=O)(OCC)C(Cc1ccc(OC)c(C(F)(F)F)c1)c1sc2ccccc2c1Cl (racemic) [Cpd 292],99%
7,CCOP(=O)(OCC)C(Cc1ccccc1C(F)(F)F)c1sc2ccccc2c1Cl (racemic) [Cpd 279],97%
8,CCCS(=O)(=O)n1c(C(Cc2ccc(F)c(C(F)(F)F)c2)P(=O)(OC(C)C)OC(C)C)c(Br)c2ccccc21 (stereo not drawn) [Cpd 332],72%
9,(R)-[1-(3-Bromo-benzo[b]thiophen-2-yl)-2-(4-fluoro-phenyl)-ethyl]-phosphonic acid diisopropyl ester [Cpd 240],98% and 77%
10,CCOP(=O)(OCC)C(Cc1ccc(F)c(OC)c1)c1sc2ccccc2c1Br (stereo not drawn) [Cpd 156],98%
11,CCOP(=O)(OCC)C(Cc1cc(C(F)(F)F)cc(C(F)(F)F)c1)c1sc2ccccc2c1Cl (racemic) [Cpd 282],100%
12,CCOP(=O)(OCC)C(Cc1c(F)c(F)c(OC)c(F)c1F)c1sc2ccccc2c1Br (racemic) [Cpd 160],87%
13,CC(C)OP(=O)(OC(C)C)C(Cc1ccc(F)c(F)c1)c1sc2ncccc2c1Br (racemic) [Cpd 207],99%
14,CCOP(=O)(OCC)C(Cc1ccc(F)c(F)c1)c1sc2ccccc2c1-c1cccc(C(N)=O)c1 (racemic) [Cpd 218],79%
15,CCOP(=O)(OCC)C(Cc1cccc(C(F)(F)F)c1)c1sc2ccccc2c1Br (stereo not drawn) [Cpd 141],100%
16,CC(C)OP(=O)(OC(C)C)C(Cc1cc(O)c(Cl)cc1F)c1sc2ccccc2c1Br (racemic) [Cpd 232],99%
17,CC(C)OP(=O)(OC(C)C)C(Cc1ccc(O)c(F)c1)c1sc2ccccc2c1Br (stereo not drawn) [Cpd 227],52%
18,CC(C)OP(=O)(OC(C)C)C(Cc1ccc(S(C)(=O)=O)cc1)c1sc2ccccc2c1Br (stereo not drawn) [Cpd 252],44%
19,CCOP(=O)(OCC)C(Cc1ccc(O)c(C(F)(F)F)c1)c1sc2ccccc2c1Br (stereo not drawn) [Cpd 233],70%
20,CC(C)OP(=O)(OC(C)C)C(Cc1c(F)c(F)c(O)c(F)c1F)c1sc2ccccc2c1Br (racemic) [Cpd 229],95%

# Same assay, conditions: compound at 0.5 μM; HEK293 cells expressing canine TRPM8, icilin activation; read-out: % I (0.5 μM)
row,Compound,inhibition at 0.5 µM [%]
1,"CC(C)OP(=O)(OC(C)C)C(Cc1ccc(F)c(C(F)(F)F)c1)c1c(Br)c2ccccc2n1S(C)(=O)=O (stereo not drawn) [Cpd 330, [1-(3-Bromo-1-methanesulfonyl-1H-indol-2-yl)-2-(4-fluoro-3-trifluoromethyl-phenyl)-ethyl]-phosphonic acid diisopropyl ester]",103

# Same assay, conditions: compound at 1 μM; HEK293 cells expressing canine TRPM8, icilin activation
row,Compound,% I (1 μM)
1,CCOP(=O)(OCC)C(Cc1cc2c(cc1Cl)OCO2)c1cc2ccccc2s1 (stereo not drawn) [Cpd 112],42%
2,"[2-(3,4-Difluoro-phenyl)-1-(3-methyl-benzo[b]thiophene-2-yl)-ethyl]-methyl-phosphonic acid ethyl ester [Cpd 30]",100% and 99%
3,CCOP(=O)(OCC)C(Cc1ccc(C(F)(F)F)c(F)c1)c1cc2ccccc2s1 (stereo not drawn) [Cpd 58],100%
4,CCOP(=O)(OCC)C(Cc1c(Cl)cccc1Cl)c1sc2ccccc2c1C (stereo not drawn) [Cpd 54],100%
5,CCOP(=O)(Cc1cc2ccccc2s1)OCc1ccccc1Cl (racemic) [Cpd 105],48%
6,CCOP(=O)(Cc1cc2ccccc2s1)OCc1ccccc1 (stereo not drawn) [Cpd 111],14%
7,CCOP(=O)(OCC)C(Cc1ccc2ccccc2c1)c1cc2ccccc2s1 (stereo not drawn) [Cpd 83],84%
8,CCOP(=O)(OCC)C(Cc1cccc(Cl)c1F)c1sc2ccccc2c1C (stereo not drawn) [Cpd 23],100%
9,CC(C)OP(=O)(OC(C)C)C(Cc1ccccc1F)c1sc2cccc(Br)c2c1Br (stereo not drawn) [Cpd 198],98%
10,CCOP(=O)(OCC)C(Cc1ccc(F)cc1Cl)c1cc2ccccc2s1 (stereo not drawn) [Cpd 98],79%
11,CCOP(=O)(OCC)C(Cc1cccc(C(F)(F)F)c1Cl)c1sc2ccccc2c1C (stereo not drawn) [Cpd 81],100% and 87%
12,Cc1c(C(Cc2ccc(F)c(F)c2)P(=O)(OC(C)C)OC(C)C)oc2ccccc12 (stereo not drawn) [Cpd 11],99%
13,CC(C)OP(=O)(OC(C)C)C(Cc1ccc(F)c(F)c1)c1sc2ccccc2c1C(C)C (stereo not drawn) [Cpd 19],100%
14,CCOP(=O)(Cc1cc2ccccc2s1)OCc1ccccc1Br (stereo not drawn) [Cpd 110],11%
15,CC(C)OP(=O)(OC(C)C)C(Cc1ccc(F)cc1)c1sc2cc(Br)ccc2c1Br (stereo not drawn) [Cpd 200],81%
16,CCOP(=O)(OCC)C(Cc1ccccc1F)c1cc2ccccc2s1 (stereo not drawn) [Cpd 80],93%
17,CCOP(=O)(OCC)C(Cc1ccccc1)c1cc2ccccc2s1 (stereo not drawn) [Cpd 74],92%
18,CCOP(=O)(OCC)C(Cc1ccccc1OC(F)(F)F)c1sc2ccccc2c1C (stereo not drawn) [Cpd 61],100%
19,"[2-(3,4-Difluoro-phenyl)-1-(3-methyl-benzo[b]thiophene-2-yl)-ethyl]-methyl-phosphonic acid ethyl ester [Cpd 106]",32%
20,CCOP(=O)(OCC)C(Cc1ccc(Br)cc1)c1cc2ccccc2s1 (stereo not drawn) [Cpd 70],82%

row,Compound,% I (1 μM)
1,CCOP(=O)(OCC)C(Cc1ccccc1-c1ccccc1)c1sc2ccccc2c1C (stereo not drawn) [Cpd 115],69%
2,CCOP(=O)(OCC)C(Cc1ccc(F)cc1Cl)c1sc2ccccc2c1C (stereo not drawn) [Cpd 27],99%
3,CCOP(=O)(OCC)C(Cc1ccccc1C)c1cc2ccccc2s1 (stereo not drawn) [Cpd 89],91%
4,CCOP(=O)(OCC)C(Cc1ccccc1C(F)(F)F)c1sc2ccccc2c1C (stereo not drawn) [Cpd 59],99%
5,CCOP(=O)(OCC)C(Cc1cc(F)cc(F)c1Cl)c1sc2ccccc2c1C (stereo not drawn) [Cpd 28],100%
6,"[2-(3,4-Difluoro-phenyl)-1-(3-methyl-benzo[b]thiophene-2-yl)-ethyl]-[3-(4-methoxy-phenyl)-propyl]-phosphonic acid ethyl ester [Cpd 136]",91%
7,CC(C)OP(=O)(OC(C)C)C(Cc1ccccc1F)c1sc2ccccc2c1Br (stereo not drawn) [Cpd 196],100%
8,CCOP(=O)(OCC)C(Cc1cccc(Cl)c1Cl)c1cc2ccccc2s1 (stereo not drawn) [Cpd 100],82%
9,CCOP(=O)(OCC)C(Cc1ccc(F)c(F)c1)c1cc2cccnc2s1 (stereo not drawn) [Cpd 131],28%
10,CCOP(=O)(OCC)C(Cc1cccc(C(F)(F)F)c1)c1cc2ccccc2s1 (stereo not drawn) [Cpd 39],100%
11,CCOP(=O)(OCC)C(Cc1ccccc1Cl)c1cc2ccccc2s1 (stereo not drawn) [Cpd 85],90%
12,CCOP(=O)(OCC)C(Cc1ccc(F)c(F)c1)c1sc2c(C(F)(F)F)cccc2c1C (stereo not drawn) [Cpd 116],64%
13,CC(C)OP(=O)(OC(C)C)C(Cc1ccc(F)c(F)c1)c1sc2ccccc2c1C1CCCC1 (stereo not drawn) [Cpd 38],99%
14,CCOP(=O)(OCC)C(Cc1c(Cl)ccc(C)c1F)c1sc2ccccc2c1C (stereo not drawn) [Cpd 60],100%
15,CC(C)OP(=O)(OC(C)C)C(Cc1cc(C(F)(F)F)cc(Cl)c1F)c1cc2ccccc2s1 (stereo not drawn) [Cpd 126],100%
16,CC(C)OP(=O)(OC(C)C)C(Cc1ccccc1F)c1sc2cc(Br)ccc2c1Br (stereo not drawn) [Cpd 199],81%
17,CCOP(=O)(OCC)C(Cc1ccccc1C)c1sc2ccccc2c1C (stereo not drawn) [Cpd 26],100%
18,COP(=O)(OC)C(Cc1ccc(F)c(F)c1)c1sc2ccccc2c1Br (stereo not drawn) [Cpd 201],100%
19,CCOP(=O)(OCC)C(Cc1cc(C(F)(F)F)cc(Cl)c1F)c1sc2ccccc2c1C (stereo not drawn) [Cpd 73],100%

# Same assay, conditions: compound at 5 μM; HEK293 cells expressing canine TRPM8, icilin activation
row,Compound,% I (5 μM) [%]
1,CCOP(=O)(Cc1cc2ccccc2s1)OCc1ccccc1Cl (racemic) [Cpd 105],100
2,CCOP(=O)(Cc1cc2ccccc2s1)OCc1ccccc1Br (stereo not drawn) [Cpd 110],96
3,CCOP(=O)(OCC)C(Cc1ccccc1F)c1cc2ccccc2s1 (stereo not drawn) [Cpd 80],100
4,CCOP(=O)(OCC)C(Cc1ccc(Br)cc1)c1cc2ccccc2s1 (stereo not drawn) [Cpd 70],99
5,CCOP(=O)(OCC)C(Cc1ccccc1C)c1cc2ccccc2s1 (stereo not drawn) [Cpd 89],100
6,CCOP(=O)(OCC)C(Cc1ccccc1Cl)c1cc2ccccc2s1 (stereo not drawn) [Cpd 85],100
